In patent US9964543B2, “Selection of medicaments that modulate the function and activity of interleukin 13” (GLYCAN BIOSCIENCES LLC, priority 2007, dated 2018):

Key:
[1] = tested on: IL-13 dependent proliferation of TF-1.8 cells; experiment: IL-13 dependent proliferation of TF-1.8 cells (luciferase); format: cell-based, human; conditions: 10 μg/ml, titration of IL-13 (FIG. 2A)
Source text: Heparin inhibited the proliferation of a human IL-13 responsive cell line. This occurs at very low doses and is not due to a toxic effect of the heparin because other, similarly sulfated polysaccharides, at the same concentrations of IL-13 and polysaccharide have no effect. These experiments utilize the TF-1.8 cells. TF-1.8 cells are a subclone of the TF-1 cells that have been selected for growth in IL-4, and because IL-4 and IL-13 share a receptor these cells are also responsive to IL-13. TF-1 cells were originally established from a bone marrow sample from a person with severe pancytopenia. […]
TF-1.8 cells have been transfected with the firefly luciferase gene contained in the expression vector, pPGK-puromycin-luciferase (Coombe et al, J. Immunol. Methods 215:145-150, 1998). […] The cells are counted with a Coulter Z2 Particle Counter and Size Analyzer (Coulter Electronics, England) and routinely 2.5×10^4 cells are added to microplate wells that contain either no IL-13 (negative control) or various dilutions of IL-13. When the effect of PPS, or other sulfated polysaccharides is to be measured, the wells also contain various concentrations of these molecules. […]
PPS inhibited the proliferation of a human IL-13 responsive cell line. […] When the effect of PPS is to be measured, the wells also contain various concentrations of this molecule. […]

[2] = BIACORE binding of IL-13 proteins to immobilized heparin; conditions: surface plasmon resonance
Source text: The optical phenomenon of surface plasmon resonance is used to monitor physical interactions between molecules. Passing a solution of a potential protein ligand (e.g. IL-13) over a sensor surface to which a target (e.g. heparin) is coupled monitors the real-time binding of protein ligands to the immobilized target. Detection is achieved by measuring refractive index changes very close to the sensor surface. When the refractive index is altered, the angle at which plasmon resonance occurs changes and this change directly correlates with the amount of protein interacting with the surface. A BIACORE 2000 sensor chip is conveniently used. It is very sensitive and its microfiuidics ensures that only small amounts of material are required.
Biotinylated heparin is immobilized on the biosensor chip. […] Solutions containing potential protein ligands of interest are injected over the sensor chip surface, and the binding is measured in real time (Femig, In: Proteoglycan protocols, Ed. R. V. Iozzo, Humana Press, Totowa, N.J., USA, 2001). Bacterially expressed recombinant human IL-13 (rhIL-13) readily binds to heparin immobilized by this method. […]
Site directed mutagenesis was performed on IL-13. […] Mutant IL-13 proteins were examined for their ability to bind heparin immobilized on a biosensor chip and binding was assessed using a BIACORE 2000 sensor chip.

TF-1 cells = experiment: TF-1 cell proliferation induced by IL-13 proteins; format: cell-based, human
Protocol: The ability of sulfated xylans to inhibit IL-13 mediated cell proliferation is size dependent. These experiments utilized the TF-1 cell line from which the TF1.8 cells were derived. The assay is performed as described above with the TF1.8 cells the differences being the concentration of IL-13 required for cell growth and the fact that cell number is determined using a dye. Briefly, proliferation assays are carried out in 96-well microplates suitable for such assays. Cells are washed to remove any cytokine in the growth medium and then resuspended in RPMI/5% w/v FCS and routinely 2.5×10^4 cells are added to microplate wells that contain either no IL-13 (negative control) or various dilutions of IL-13. When the effect of the different sized sulfated xylans was measured, the wells also contained various concentrations of these molecules and the IL-13 concentration was held constant at 2.5 ng/ml. The cells proliferated for 48 hours, after which the number of cells present was quantified by staining with […] of the AQUEOUS ONE dye for 3 hours and then absorbance was read at 490 nm.
The IL-13R111 wild type and the IL-13Q111 variant are shown for comparison.
Details of the assay are given in Example 6.

IL-13Rα1 = molecular target: T1, IL-13Rα1 (Homo sapiens, UniProt P78552); conditions: low-moderate affinity; read-out: affinity of IL-13Rα1 by itself for IL-13; cited from earlier work
T1 sequence (P78552 22-427): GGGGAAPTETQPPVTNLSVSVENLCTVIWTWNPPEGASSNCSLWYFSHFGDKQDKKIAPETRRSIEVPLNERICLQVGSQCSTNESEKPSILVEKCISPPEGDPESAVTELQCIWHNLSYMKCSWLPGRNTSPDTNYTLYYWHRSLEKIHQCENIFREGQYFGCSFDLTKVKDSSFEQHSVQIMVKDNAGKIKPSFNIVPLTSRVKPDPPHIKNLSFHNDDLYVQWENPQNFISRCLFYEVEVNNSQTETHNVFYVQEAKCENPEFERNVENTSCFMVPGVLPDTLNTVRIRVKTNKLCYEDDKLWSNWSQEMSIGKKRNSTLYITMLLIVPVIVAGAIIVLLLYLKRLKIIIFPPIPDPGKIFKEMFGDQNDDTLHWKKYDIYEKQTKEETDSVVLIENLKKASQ

IL-13 Rα2 = molecular target: T2, IL-13 Rα2 (Homo sapiens, UniProt Q14627); conditions: high affinity; cited from earlier work
T2 sequence (Q14627 27-380): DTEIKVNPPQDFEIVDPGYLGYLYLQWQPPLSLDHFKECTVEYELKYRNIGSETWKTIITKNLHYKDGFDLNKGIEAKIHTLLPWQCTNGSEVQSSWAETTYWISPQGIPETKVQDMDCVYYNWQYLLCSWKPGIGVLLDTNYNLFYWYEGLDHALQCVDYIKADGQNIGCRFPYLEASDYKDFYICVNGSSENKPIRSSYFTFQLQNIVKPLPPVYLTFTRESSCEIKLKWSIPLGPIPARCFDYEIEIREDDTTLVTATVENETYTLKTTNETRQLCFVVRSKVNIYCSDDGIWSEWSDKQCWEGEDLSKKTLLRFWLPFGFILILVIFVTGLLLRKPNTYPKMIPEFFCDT

Row | binding to heparin immobilized on BIACORE sensor chip ([2]; listed as rhIL-13) | binding to heparin immobilized on BIACORE sensor chip ([2]; listed as wild type IL-13) | Compound | inhibition of IL-13 mediated cell proliferation [1] | Concentration of IL-13 required for 50% TF-1 cell proliferation ED50 ave (TF-1 cells) [ng/mL] | cell proliferative activity in the TF-1 cell assay (TF-1 cells; FIG. 7A) | Kd (IL-13Rα1) [nM] | Kd (IL-13 Rα2) [nM]
1 |  |  | O=S(=O)(O)OC[C@H]1O[C@@](COS(=O)(=O)O)(O[C@H]2O[C@H](COS(=O)(=O)O)[C@@H](OS(=O)(=O)O)[C@H](OS(=O)(=O)O)[C@H]2OS(=O)(=O)O)[C@@H](OS(=O)(=O)O)[C@@H]1OS(=O)(=O)O [sucrose octasulfate] | very little inhibitory activity |  |  |  | 
2 | readily binds | binds heparin more strongly | IL-13 WT (R111): wild type human IL-13 with arginine in the 111 position; 1IJZ.pdb monomer in docking |  | 1.2 | comparable | 2 to 10 | 0.5 to 1.2
